In publication PMC8863579, “Effects of pharmacological inhibition of the sodium‐dependent phosphate cotransporter 2b (NPT2b) on intestinal phosphate absorption in mouse and rat models” (Pharmacology Research & Perspectives, 2022) one finds IC50 and Selectivity data, which are given here for 1 compound.

SMILES strings stand for the structures.

For one test, the target named is T1, Human NPT2a (Homo sapiens, UniProt Q06495).
T1 construct: Full Length cDNA Cloning and Generation of Cell Lines Over-Expressing Human NPT2a, NPT2c, Pit1, and Pit2; host or cells: CHO-K1 / T-REx CHO, pJTI R4 CMV-TO, tetracycline-induced
T1 sequence (Q06495 1-639): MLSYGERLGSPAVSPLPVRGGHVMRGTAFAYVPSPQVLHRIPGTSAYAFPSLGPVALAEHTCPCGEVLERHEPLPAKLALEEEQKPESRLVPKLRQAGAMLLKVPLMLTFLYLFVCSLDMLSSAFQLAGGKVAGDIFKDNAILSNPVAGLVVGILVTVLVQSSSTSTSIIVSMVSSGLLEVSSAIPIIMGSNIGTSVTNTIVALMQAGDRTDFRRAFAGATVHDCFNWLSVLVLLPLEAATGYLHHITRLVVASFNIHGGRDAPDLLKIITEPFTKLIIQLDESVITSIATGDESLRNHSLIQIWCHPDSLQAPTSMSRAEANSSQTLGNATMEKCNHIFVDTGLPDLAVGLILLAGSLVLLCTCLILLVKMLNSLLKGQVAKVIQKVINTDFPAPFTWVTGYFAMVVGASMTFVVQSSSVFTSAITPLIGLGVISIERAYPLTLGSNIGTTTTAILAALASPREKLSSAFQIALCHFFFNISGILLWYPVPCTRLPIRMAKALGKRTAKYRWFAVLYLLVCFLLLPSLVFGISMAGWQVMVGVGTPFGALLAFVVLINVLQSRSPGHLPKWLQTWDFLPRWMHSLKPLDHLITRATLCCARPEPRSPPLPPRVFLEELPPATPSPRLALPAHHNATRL
The test can be described thus: 33P-phosphate uptake in CHO cells expressing human NPT2a. Format: cell-based. Here is the method:
T‐Rex™ Chinese Hamster Ovary cells (CHO; Thermo Fisher Scientific) stably expressing human, mouse, or rat NPT2b under a tetracycline‐inducible promoter were generated using standard cDNA transfection and clone selection procedures (see Supporting Information). Cells were plated in 96‐well CytoStar‐T® scintillating microplates and were incubated overnight in growth media plus 100 ng/ml of tetracycline to induce expression of NPT2b. The next day, cells were washed 3 times with 200 µl assay buffer (137 mM NaCl, 5.4 mM KCl, 2.8 mM CaCl2, 1.2 mM MgSO4, and 14 mM Tris‐HCl buffer, pH 7.5). LY3358966 serially diluted 1‐to‐3 in DMSO was added to cells with assay buffer. An equal volume of H3 ^33PO4 (PerkinElmer) in assay buffer supplemented with 5 µM potassium phosphate was then added to initiate radiolabeled phosphate (^33P‐phosphate) uptake. […] The plate was immediately read on a Wallac MicroBeta Trilux liquid scintillation counter. Percent inhibition at all concentrations tested was calculated, and IC50 values were then determined using a 4‐parameter logistic curve fitting equation.
Similar methods were used to measure the effects of LY3358966 on other transporters of interest, except that constitutive promoters were used to generate CHO cells over‐expressing human PiT1 and PiT2. The ^33P‐phosphate uptake was measured after 45 min at 20°C for the NPT2a, NPT2c, PiT1, and PiT2 assays. […]

A further test deals with T2, human NPT2b (Homo sapiens, UniProt O95436).
T2 construct: Full-Length cDNA Cloning and Generation of Cell Lines Over-Expressing Human, Mouse, and Rat NPT2b; host or cells: CHO-K1 / T-REx CHO, pcDNA5/TO, tetracycline-induced
T2 sequence (O95436 1-690): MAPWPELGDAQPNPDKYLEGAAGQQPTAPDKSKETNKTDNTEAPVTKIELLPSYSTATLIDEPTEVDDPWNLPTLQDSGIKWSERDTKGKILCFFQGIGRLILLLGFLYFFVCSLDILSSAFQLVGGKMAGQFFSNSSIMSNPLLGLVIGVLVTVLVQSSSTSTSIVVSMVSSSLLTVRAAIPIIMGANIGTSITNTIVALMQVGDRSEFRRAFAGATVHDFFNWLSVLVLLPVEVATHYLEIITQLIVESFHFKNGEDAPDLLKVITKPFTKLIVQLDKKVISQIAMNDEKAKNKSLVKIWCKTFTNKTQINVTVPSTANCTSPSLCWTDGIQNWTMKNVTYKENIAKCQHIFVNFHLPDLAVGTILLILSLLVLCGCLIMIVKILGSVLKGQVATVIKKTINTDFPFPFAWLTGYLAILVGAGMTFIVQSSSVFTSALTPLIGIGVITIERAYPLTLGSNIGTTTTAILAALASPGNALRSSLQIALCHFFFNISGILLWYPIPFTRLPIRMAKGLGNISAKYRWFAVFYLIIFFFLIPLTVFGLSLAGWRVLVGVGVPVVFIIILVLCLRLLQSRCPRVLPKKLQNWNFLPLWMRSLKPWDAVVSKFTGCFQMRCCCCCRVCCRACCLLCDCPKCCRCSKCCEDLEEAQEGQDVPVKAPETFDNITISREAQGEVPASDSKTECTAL
The test can be described thus: 33P-phosphate uptake in CHO cells expressing human NPT2b. In kind it is cell-based. The following applies: geometric mean; 2.5 µM phosphate, 60 min, room temperature. Here is the method: T‐Rex™ Chinese Hamster Ovary cells (CHO; Thermo Fisher Scientific) stably expressing human, mouse, or rat NPT2b under a tetracycline‐inducible promoter were generated using standard cDNA transfection and clone selection procedures (see Supporting Information). Cells were plated in 96‐well CytoStar‐T® scintillating microplates and were incubated overnight in growth media plus 100 ng/ml of tetracycline to induce expression of NPT2b. The next day, cells were washed 3 times with 200 µl assay buffer (137 mM NaCl, 5.4 mM KCl, 2.8 mM CaCl2, 1.2 mM MgSO4, and 14 mM Tris‐HCl buffer, pH 7.5). LY3358966 serially diluted 1‐to‐3 in DMSO was added to cells with assay buffer. An equal volume of H3 ^33PO4 (PerkinElmer) in assay buffer supplemented with 5 µM potassium phosphate was then added to initiate radiolabeled phosphate (^33P‐phosphate) uptake. The final phosphate concentration was 2.5 µM and the final DMSO concentration was 1%. Following a 60‐min incubation at room temperature, an equal volume of assay buffer containing 400 µM phloretin was added to stop ^33P‐phosphate uptake. The plate was immediately read on a Wallac MicroBeta Trilux liquid scintillation counter. Percent inhibition at all concentrations tested was calculated, and IC50 values were then determined using a 4‐parameter logistic curve fitting equation.
The vendors for target cDNA are listed in supplemental Table 1. […]

Turning to `CC1(C)CN(C(=O)NCCCCO)CCN1Cc1cccc(C(=O)Nc2sc3c(c2C(=O)Nc2cc(F)c(CCc4ccc(C(=O)O)cc4)c(F)c2)CCCC3)c1` [LY3358966, 4‐[2‐[2,6‐difluoro‐4‐[[2‐[[3‐[[4‐(4‐hydroxybutylcarbamoyl)‐2,2‐dimethyl‐piperazin‐1‐yl]methyl]benzoyl]amino]‐4,5,6,7‐tetrahydrobenzothiophene‐3‐carbonyl]amino]phenyl]ethyl]benzoic acid], the half-maximal inhibitory concentration (IC50) on Human NPT2a (geometric mean, 45 min at 20°C) is 11 nM; against human NPT2b, 32.4 nM. For the same compound, the Selectivity at Human NPT2a (ratio of IC50 of human NPT2a assay to that of human NPT2b assay) came out at 0.3.
